Experimental data as given in article PMC10384010, “Chromatographic Data in Statistical Analysis of BBB Permeability Indices” (Membranes, 2023).
Read-outs that look alike come from different tables or passages of the source.

How the values were obtained:
[1] = entering the CNS / not entering the CNS; ref Drugbank [36]; cited from earlier work
[2] = HPLC on IAM (immobilized artificial membrane) column, retention factor; format: physicochemical; conditions: IAM.PC.DD.2 column; for k(IAM) retention factor: 10 mM phosphate buffer pH 7.4:acetonitrile 80:20; for logkIAM: logarithm of retention factor, phosphate buffer pH 7.4:acetonitrile 80:20
Description: Chromatographic data also came from an experiment with a HPLC IAM (immobilized artificial membrane) column (Regis Technologies Inc.: IAM.PC.DD.2, 10 µm; 4.6 mm × 10 mm). The column contains a standard membrane consisting of a phospholipid bilayer. Organic solvents (acetonitrile and methanol) and water (J.T. Baker HPLC) were used in HPLC. Sigma phosphate buffered saline tablets were used to prepare the phosphate buffer. The mobile phase was a mixture of 10 mM phosphate buffer at pH 7.4 and acetonitrile in the ratio of 80:20 (v/v) [35]. The mobile phase flow was set at 0.5 mL/min; detection was carried out with a UV–Vis detector. The obtained values of the retention factor (k IAM) were transformed into a logarithmic form and entered into the statistical analysis (descriptor: log k IAM).

[3] = Normal-phase TLC on silica gel 60 F254 (Rf); format: physicochemical; conditions: water:methanol:acetonitrile 60:20:20, ammonium acetate pH 7.4
Description: (§1) The purity of the isolated substances was checked by TLC chromatography and densitometric scanning.
(§2) APIs were subjected to chromatographic in column (HPLC) and thin layer (TLC) formats. TLC chromatography was carried out on 20 cm × 20 cm glass plates by Merck, covered with silica gel and the addition of a fluorescent indicator. Merck TLC silica gel 60 F254 was used for the normal phase (NP). In the reverse phase (RP), RP-2 silanized plates were used (Merck TLC Silica gel 60 RP-2 F254, silanized). The mobile phase was buffered with ammonium acetate to pH 7.4 (LACH-NER, ammonium acetate).
(§3) Plates, after developing the chromatograms, were scanned using a densitometer (Desaga CD 60) with an analytical wavelength selected individually for drugs. The values of Rf (molecular descriptors: NP, RP) were determined.

[4] = Reversed-phase TLC on RP-2 silanized plates (Rf); format: physicochemical; conditions: silica gel 60 RP-2 F254 silanized; water:methanol:acetonitrile 60:20:20, ammonium acetate pH 7.4
Description: as §1, §2, §3

[5] = cited from earlier work
[6] = plasma protein binding, given as fraction, ref Drugbank

SMILES	CNS+/- [1]	k(IAM) retention factor [2]	logkIAM [2]	NP (Rf from NP TLC plate) [3]	RP (Rf from RP-2 TLC plate) [4]	PB (protein binding) ([5]; plasma)	PB (protein binding) [5, 6]
CC(=O)CC(c1ccc([N+](=O)[O-])cc1)c1c(O)c2ccccc2oc1=O (stereo not shown) [acenocumarol]	1	0.53	-0.27	0.99			
CC1(C)S[C@@H]2[C@H](NC(=O)[C@H](N)c3ccc(O)cc3)C(=O)N2[C@H]1C(=O)O [amoxilcillin]		0.05	-1.32	0.68	0.99	0.2	
CNCCc1ccccn1 [betahistine]	1	0.90	-0.05	0.17	0.31		
CCOCCn1c(C2CCN(CCc3ccc(C(C)(C)C(=O)O)cc3)CC2)nc2ccccc21 [bilastine]		0.55	-0.26	0.46	0.76		0.87
OC(CCN1CCCCC1)(c1ccccc1)C1CC2C=CC1C2 (stereo not shown) [biperiden]		41.47	1.62	0.68	0.87		0.6
CC(C)C[C@H]1C(=O)N2CCC[C@H]2[C@]2(O)O[C@](NC(=O)[C@@H]3C=C4c5cccc6[nH]c(Br)c(c56)C[C@H]4N(C)C3)(C(C)C)C(=O)N12 [bromocriptine]		12.69	1.10	0.95	0.69		0.93
CCCCCOC(=O)Nc1nc(=O)n([C@@H]2O[C@H](C)[C@@H](O)[C@H]2O)cc1F [capecitabine]	1	1.11	0.04	0.92	0.9		
C=CCN1C[C@H](C(=O)N(CCCN(C)C)C(=O)NCC)C[C@@H]2c3cccc4[nH]cc(c34)C[C@H]21 [carbegoline]		17.05	1.23	0.68	0.68	0.41	
CCN(CC)C(=O)Nc1ccc(OCC(O)CNC(C)(C)C)c(C(C)=O)c1 (stereo not shown) [celiprolol]		5.87	0.77	0.45	0.75		0.275
CC[C@H]1OC(=O)[C@H](C)[C@@H](O[C@H]2C[C@@](C)(OC)[C@@H](O)[C@H](C)O2)[C@H](C)[C@@H](O[C@@H]2O[C@H](C)C[C@H](N(C)C)[C@H]2O)[C@](C)(OC)C[C@@H](C)C(=O)[C@H](C)[C@@H](O)[C@]1(C)O [clarithromycin]	0	0.10	-1.02	0.99	0.83		
O=C(O)C1N=C(c2ccccc2)c2cc(Cl)ccc2NC1=O (stereo not shown) [clorazepate]		4.88	0.69	0.94	0.81		0.975
CN(C)CCOC(c1ccccc1)c1ccccc1 [diphenhydramin]		3.66	0.56	0.42	0.58	0.985	
CCOc1ccc(/C=C2\NCCc3cc(OCC)c(OCC)cc32)cc1OCC [drotaverine]	1	31.24	1.49	0.61	0.55		
CN1CCC[C@@H]1Cc1c[nH]c2ccc(CCS(=O)(=O)c3ccccc3)cc12 [eletriptan]	1						
C[C@]12CC[C@@H]3c4ccc(OC(=O)c5ccccc5)cc4CC[C@H]3[C@@H]1CC[C@@H]2O [estradiol benzoate]		6.92	0.84	0.97	0.63		0.95
C[C@]12CC[C@@H]3c4ccc(O)cc4CC[C@H]3[C@@H]1CCC2=O [estrone]		29.40	1.47	0.99	0.79		0.95
CC[C@@H](CO)NCCN[C@@H](CC)CO [ethambutol]	0			0.19	0.97		
O[C@@H]1CO[C@H]2[C@@H]1OC[C@@H]2O [isosorbide]	1	0.21	-0.68	0.26	0.54		
C[C@H]1COc2c(N3CCN(C)CC3)c(F)cc3c(=O)c(C(=O)O)cn1c23 [levofloxacin]		0.90	-0.04	0.17	0.27		0.31

SMILES	CNS+/- [1]	k(IAM) retention factor [2]	logkIAM [2]	NP (Rf from NP TLC plate) [3]	RP (Rf from RP-2 TLC plate) [4]	PB (protein binding) ([5]; plasma)	PB (protein binding) [5, 6]
CN1CCN=C(c2ccccc2)c2cc(Cl)ccc21 [medazepam]		34.65	1.54	0.91	0.66		0.99
CN(C)C(=N)N=C(N)N [metformin]	1	0.34	-0.47	0.21	0.78		
COCCc1ccc(OCC(O)CNC(C)C)cc1 (stereo not shown) [metoprolol]	0	4.32	0.64	0.48	0.28		
OC(CNCC(O)C1CCc2cc(F)ccc2O1)C1CCc2cc(F)ccc2O1 (stereo not shown) [nebivolol]	1			0.75	0.4		
C[C@]12C=CC(=O)C=C1CC[C@@H]1[C@@H]2[C@@H](O)C[C@@]2(C)[C@H]1CC[C@]2(O)C(=O)CO [prednizolone]		2.84	0.45	0.94	0.87	0.9	
CC(=O)[C@H]1CC[C@H]2[C@@H]3CCC4=CC(=O)CC[C@]4(C)[C@H]3CC[C@]12C [progesterone]		34.99	1.54	0.96	0.71		0.975
CNC(=C[N+](=O)[O-])NCCSCc1ccc(CN(C)C)o1 [ranitidine]	0	0.67	-0.17	0.24	0.81		
CO[C@H]1/C=C/O[C@@]2(C)Oc3c(C)c(O)c4c(O)c(c(/C=N/N5CCN(C)CC5)c(O)c4c3C2=O)NC(=O)/C(C)=C\C=C\[C@H](C)[C@H](O)[C@@H](C)[C@@H](O)[C@@H](C)[C@H](OC(C)=O)[C@@H]1C [rifampicin]				0.73	0.95		0.89
CC[C@H]1OC(=O)[C@H](C)[C@@H](O[C@H]2C[C@@](C)(OC)[C@@H](O)[C@H](C)O2)[C@H](C)[C@@H](O[C@@H]2O[C@H](C)C[C@H](N(C)C)[C@H]2O)[C@](C)(O)C[C@@H](C)/C(=N\OCOCCOC)[C@H](C)[C@@H](O)[C@]1(C)O [roxitromicin]				0.91	0.8	0.96	
Cc1cncc(CN2CCC(=C3c4ccc(Cl)cc4CCc4cccnc43)CC2)c1 [rupatadine]		9.29	0.97	0.42	0.55		0.985
CN[C@H]1CC[C@@H](c2ccc(Cl)c(Cl)c2)c2ccccc21 [sertraline]		42.89	1.63	0.53	0.49		0.98
CCCc1nn(C)c2c(=O)[nH]c(-c3cc(S(=O)(=O)N4CCN(C)CC4)ccc3OCC)nc12 [sildenafil]	1	14.26	1.15	0.69	0.77		
CC(=O)S[C@@H]1CC2=CC(=O)CC[C@]2(C)[C@H]2CC[C@@]3(C)[C@@H](CC[C@@]34CCC(=O)O4)[C@H]12 [spironolactone]		13.38	1.13	0.98	0.78		0.9
CCN1CCCC1CNC(=O)c1cc(S(N)(=O)=O)ccc1OC (stereo not shown) [sulpiride]		1.66	0.22	0.27	0.85		0.4
COc1cc(Cc2cnc(N)nc2N)cc(OC)c1OC [trimethoprim]	1			0.57			
CCN(Cc1ccncc1)C(=O)C(CO)c1ccccc1 (stereo not shown) [tropicamid]		1.06	0.03	0.85	0.83	0.45	
CN(C)CCc1c[nH]c2ccc(C[C@H]3COC(=O)N3)cc12 [zolmitriptane]		3.30	0.52	0.31	0.86	0.25	
CN1CCN(C(=O)OC2c3nccnc3C(=O)N2c2ccc(Cl)cn2)CC1 (stereo not shown) [zopiclone]		0.91	-0.04	0.96	0.84		0.45
